Test results: ChEMBL document CHEMBL6177933, “Discovery of Sophoridine α-Aryl Propionamide Derivative ZM600 as a Novel Antihepatic Fibrosis Agent” (J Med Chem, 2024)
Active and inactive are the calls of the source. No cut-off for these calls is given here.

How the values were obtained:
RAW264.7 [1] = assay: Inhibition of LPS-induced NFkappaB transcriptional activity in mouse RAW264.7 cells at 20 uM preincubated for 2 hrs followed by LPS stimulation and measured after 6 hrs by luciferase reporter gene assay relative to control; assay type: cell-based; settings: time 8.0 hrs
LX-2 [2] = assay: Inhibition of FBS-induced cell migration in human LX-2 cells assessed as reduction in wound healing measured after 24 hrs by scratch wound assay; assay type: functional, cell-based; settings: dose 5-20 µM
RAW264.7 [3] = assay: Antiinflammatory activity in mouse RAW264.7 cells assessed as inhibition of LPS-induced alpha-SMA mRNA expression at 5 to 20 uM preincubated for 2 hrs followed by LPS stimulation and measured after 48 hrs by qRT-PCR analysis; assay type: functional, cell-based; settings: dose 5-20 µM, time 50.0 hrs
RAW264.7 [4] = assay: Antiinflammatory activity in mouse RAW264.7 cells assessed as inhibition of TGFbeta1-induced alpha-SMA expression at 5 to 20 uM preincubated for 2 hrs […] and measured after 48 hrs by Western blot analysis; assay type: functional, cell-based; settings: dose 5-20 µM, time 50.0 hrs
RAW264.7 [5] = assay: Antiinflammatory activity in mouse RAW264.7 cells assessed as inhibition of TGFbeta1-induced collagen 1 expression at 5 to 20 uM preincubated for 2 hrs […] and measured after 48 hrs by Western blot analysis; assay type: functional, cell-based; settings: dose 5-20 µM, time 50.0 hrs
RAW264.7 [6] = assay: Antiinflammatory activity in mouse RAW264.7 cells assessed as inhibition of TGFbeta1-induced collagen 1 mRNA expression at 5 to 20 uM preincubated for 2 hrs […] and measured after 48 hrs by qRT-PCR analysis; assay type: functional, cell-based; settings: dose 5-20 µM, time 50.0 hrs
Mus musculus [7] = assay: Antifibrotic activity against CCL4-induced C57BL/6J mouse hepatic fibrosis model assessed as reduction in hard texture of liver at 15 to 30 mg/kg, po administered via gavage for 4 weeks starting from 5th week of CCL4 stimulation; assay type: functional, organism-based; settings: dose 15-30 mg/kg
Mus musculus [8] = assay: Antifibrotic activity against CCL4-induced C57BL/6J mouse hepatic fibrosis model assessed as reduction in necrosis of hepatocytes at 15 to 30 mg/kg, po administered via gavage for 4 weeks starting from 5th week of CCL4 stimulation by H and E staining based histopathological analysis; assay type: functional, organism-based; settings: dose 15-30 mg/kg
Mus musculus [9] = assay: Antifibrotic activity against CCL4-induced C57BL/6J mouse hepatic fibrosis model assessed as reduction in collagen deposition in liver at 15 to 30 mg/kg, po administered via gavage for 4 weeks starting from 5th week of CCL4 stimulation by Sirius red and Masson's trichrome staining based assay; assay type: functional, organism-based; settings: dose 15-30 mg/kg
Mus musculus [10] = assay: Antifibrotic activity against CCL4-induced C57BL/6J mouse hepatic fibrosis model assessed as reduction in alphaSMA expression in liver at 15 to 30 mg/kg, po administered via gavage for 4 weeks starting from 5th week of CCL4 stimulation by immunohistochemical staining based assay; assay type: functional, organism-based; settings: dose 15-30 mg/kg
Mus musculus [11] = assay: Antifibrotic activity against CCL4-induced C57BL/6J mouse hepatic fibrosis model assessed as reduction in alphaSMA expression in liver at 15 to 30 mg/kg, po administered via gavage for 4 weeks starting from 5th week of CCL4 stimulation by Western blot analysis; assay type: functional, organism-based; settings: dose 15-30 mg/kg
Mus musculus [12] = assay: Antifibrotic activity against CCL4-induced C57BL/6J mouse hepatic fibrosis model assessed as reduction in collagen 1 expression in liver at 15 to 30 mg/kg, po administered via gavage for 4 weeks starting from 5th week of CCL4 stimulation by Western blot analysis; assay type: functional, organism-based; settings: dose 15-30 mg/kg
Mus musculus [13] = assay: Antifibrotic activity against CCL4-induced C57BL/6J mouse hepatic fibrosis model assessed as reduction in collagen 1 expression in liver at 15 to 30 mg/kg, po administered via gavage for 4 weeks starting from 5th week of CCL4 stimulation by qRT-PCR analysis; assay type: functional, organism-based; settings: dose 15-30 mg/kg
Mus musculus [14] = assay: Antifibrotic activity against BDL-induced C57BL/6J mouse hepatic fibrosis model assessed as reduction in collagen deposition in liver at 15 to 30 mg/kg, po administered via gavage starting from 3 days post-BDL by Sirius Red and Masson staining based assay; assay type: functional, organism-based; settings: dose 15-30 mg/kg
Mus musculus [15] = assay: Antifibrotic activity against BDL-induced C57BL/6J mouse hepatic fibrosis model assessed as reduction in collagen 1 expression in liver at 15 to 30 mg/kg, po administered via gavage starting from 3 days post-BDL by Western blot analysis; assay type: functional, organism-based; settings: dose 15-30 mg/kg
Mus musculus [16] = assay: Antifibrotic activity against BDL-induced C57BL/6J mouse hepatic fibrosis model assessed as reduction in alphaSMA mRNA expression in liver at 15 to 30 mg/kg, po administered via gavage starting from 3 days post-BDL by qRT-PCR analysis; assay type: functional, organism-based; settings: dose 15-30 mg/kg
Mus musculus [17] = assay: Antifibrotic activity against BDL-induced C57BL/6J mouse hepatic fibrosis model assessed as reduction in collagen 1 mRNA expression in liver at 15 to 30 mg/kg, po administered via gavage starting from 3 days post-BDL by qRT-PCR analysis; assay type: functional, organism-based; settings: dose 15-30 mg/kg
[18] = target: Nuclear factor NF-kappa-B complex (Homo sapiens) (UniProt Q00653+P19838+Q04206); assay: Inhibition of LPS-induced NFkappaB activation in human LX-2 cells assessed as reduction in p65 phosphorylation preincubated for 2 hrs followed by LPS stimulation and measured after 2 hrs by Western blot analysis; assay type: cell-based; settings: dose 5-20 µM, time 4.0 hrs
LX-2 [19] = assay: Inhibition of TGFbeta1-induced AKT phosphorylation in human LX-2 cells preincubated for 2 hrs followed by […] stimulation and measured after 2 hrs by Western blot analysis; assay type: cell-based; settings: dose 5-20 µM, time 4.0 hrs
LX-2 [20] = assay: Inhibition of TGFbeta1-induced ERK1/2 phosphorylation in human LX-2 cells at 5 to 20 uM preincubated for 2 hrs followed by […] stimulation and measured after 2 hrs by Western blot analysis; assay type: cell-based; settings: dose 5-20 µM, time 4.0 hrs
Mus musculus [21] = assay: In vivo inhibition of AKT phosphorylation in CCL4-induced C57BL/6J mouse hepatic fibrosis model at 15 to 30 mg/kg, po administered via gavage for 4 weeks starting from 5th week of CCL4 stimulation by Western blot analysis; assay type: functional, organism-based; settings: dose 15-30 mg/kg
Mus musculus [22] = assay: In vivo inhibition of JNK phosphorylation in CCL4-induced C57BL/6J mouse hepatic fibrosis model at 15 to 30 mg/kg, po administered via gavage for 4 weeks starting from 5th week of CCL4 stimulation by Western blot analysis; assay type: functional, organism-based; settings: dose 15-30 mg/kg
Mus musculus [23] = assay: In vivo inhibition of ERK1/2 phosphorylation in CCL4-induced C57BL/6J mouse hepatic fibrosis model at 15 to 30 mg/kg, po administered via gavage for 4 weeks starting from 5th week of CCL4 stimulation by Western blot analysis; assay type: functional, organism-based; settings: dose 15-30 mg/kg
Mus musculus [24] = assay: In vivo inhibition of p65 phosphorylation in BDL-induced C57BL/6J mouse hepatic fibrosis model at 15 to 30 mg/kg, po administered via gavage starting from 3 days post-BDL by Western blot analysis; assay type: functional, organism-based; settings: dose 15-30 mg/kg
Mus musculus [25] = assay: In vivo inhibition of Smad3 phosphorylation in BDL-induced C57BL/6J mouse hepatic fibrosis model at 15 to 30 mg/kg, po administered via gavage starting from 3 days post-BDL by Western blot analysis; assay type: functional, organism-based; settings: dose 15-30 mg/kg
Mus musculus [26] = assay: In vivo inhibition of ERK1/2 phosphorylation in BDL-induced C57BL/6J mouse hepatic fibrosis model at 15 to 30 mg/kg, po administered via gavage starting from 3 days post-BDL by Western blot analysis; assay type: functional, organism-based; settings: dose 15-30 mg/kg

Chain of Nuclear factor NF-kappa-B complex (Homo sapiens) (P19838 whole entry, looked up): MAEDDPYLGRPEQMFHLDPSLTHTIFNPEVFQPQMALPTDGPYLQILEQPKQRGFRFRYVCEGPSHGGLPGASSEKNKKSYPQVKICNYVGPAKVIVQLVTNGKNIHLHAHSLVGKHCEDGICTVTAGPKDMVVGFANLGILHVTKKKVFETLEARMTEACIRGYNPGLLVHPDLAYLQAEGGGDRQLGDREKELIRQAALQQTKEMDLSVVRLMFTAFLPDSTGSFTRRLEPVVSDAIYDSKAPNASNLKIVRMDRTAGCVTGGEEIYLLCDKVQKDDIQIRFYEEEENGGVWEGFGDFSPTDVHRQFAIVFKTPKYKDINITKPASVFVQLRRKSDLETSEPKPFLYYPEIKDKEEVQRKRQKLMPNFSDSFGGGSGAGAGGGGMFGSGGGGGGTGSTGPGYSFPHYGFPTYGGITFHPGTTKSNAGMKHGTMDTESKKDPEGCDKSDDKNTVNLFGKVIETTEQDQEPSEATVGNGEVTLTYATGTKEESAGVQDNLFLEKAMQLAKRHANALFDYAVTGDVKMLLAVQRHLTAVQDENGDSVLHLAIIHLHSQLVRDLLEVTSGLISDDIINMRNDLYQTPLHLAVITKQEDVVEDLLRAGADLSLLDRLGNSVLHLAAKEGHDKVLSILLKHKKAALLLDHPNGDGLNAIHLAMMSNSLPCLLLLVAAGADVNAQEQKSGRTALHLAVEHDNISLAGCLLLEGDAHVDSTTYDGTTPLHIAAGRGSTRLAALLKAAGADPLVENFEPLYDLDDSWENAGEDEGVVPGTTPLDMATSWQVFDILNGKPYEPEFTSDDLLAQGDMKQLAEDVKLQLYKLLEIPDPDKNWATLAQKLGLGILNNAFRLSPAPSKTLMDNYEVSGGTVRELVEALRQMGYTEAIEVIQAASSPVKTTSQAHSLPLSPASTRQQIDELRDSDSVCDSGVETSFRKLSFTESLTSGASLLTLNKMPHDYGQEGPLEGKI
Chain of Nuclear factor NF-kappa-B complex (Homo sapiens) (Q00653 whole entry, looked up): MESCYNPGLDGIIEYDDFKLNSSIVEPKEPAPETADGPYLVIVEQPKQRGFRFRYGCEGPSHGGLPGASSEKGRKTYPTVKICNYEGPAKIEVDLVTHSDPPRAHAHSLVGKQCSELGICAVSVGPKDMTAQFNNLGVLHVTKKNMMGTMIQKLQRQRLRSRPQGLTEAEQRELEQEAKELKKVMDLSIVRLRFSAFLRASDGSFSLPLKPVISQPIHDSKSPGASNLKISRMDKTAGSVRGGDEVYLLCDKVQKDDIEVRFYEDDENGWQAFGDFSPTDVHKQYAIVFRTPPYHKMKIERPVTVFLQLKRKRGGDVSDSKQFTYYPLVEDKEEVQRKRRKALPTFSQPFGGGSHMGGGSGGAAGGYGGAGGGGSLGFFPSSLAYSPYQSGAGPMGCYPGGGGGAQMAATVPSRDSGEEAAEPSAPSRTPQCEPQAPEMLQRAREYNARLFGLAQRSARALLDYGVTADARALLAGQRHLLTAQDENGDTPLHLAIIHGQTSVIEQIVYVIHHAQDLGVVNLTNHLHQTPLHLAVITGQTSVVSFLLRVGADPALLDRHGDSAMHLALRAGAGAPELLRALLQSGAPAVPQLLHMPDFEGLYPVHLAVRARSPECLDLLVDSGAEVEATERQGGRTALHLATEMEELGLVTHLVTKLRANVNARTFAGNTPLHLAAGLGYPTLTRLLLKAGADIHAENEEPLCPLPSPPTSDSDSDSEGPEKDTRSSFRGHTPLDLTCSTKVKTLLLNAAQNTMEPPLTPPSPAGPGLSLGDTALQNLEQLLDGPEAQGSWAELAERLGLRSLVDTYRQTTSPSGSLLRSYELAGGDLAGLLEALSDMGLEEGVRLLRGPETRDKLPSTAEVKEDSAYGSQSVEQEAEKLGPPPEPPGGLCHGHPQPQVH
Chain of Nuclear factor NF-kappa-B complex (Homo sapiens) (Q04206 whole entry, looked up): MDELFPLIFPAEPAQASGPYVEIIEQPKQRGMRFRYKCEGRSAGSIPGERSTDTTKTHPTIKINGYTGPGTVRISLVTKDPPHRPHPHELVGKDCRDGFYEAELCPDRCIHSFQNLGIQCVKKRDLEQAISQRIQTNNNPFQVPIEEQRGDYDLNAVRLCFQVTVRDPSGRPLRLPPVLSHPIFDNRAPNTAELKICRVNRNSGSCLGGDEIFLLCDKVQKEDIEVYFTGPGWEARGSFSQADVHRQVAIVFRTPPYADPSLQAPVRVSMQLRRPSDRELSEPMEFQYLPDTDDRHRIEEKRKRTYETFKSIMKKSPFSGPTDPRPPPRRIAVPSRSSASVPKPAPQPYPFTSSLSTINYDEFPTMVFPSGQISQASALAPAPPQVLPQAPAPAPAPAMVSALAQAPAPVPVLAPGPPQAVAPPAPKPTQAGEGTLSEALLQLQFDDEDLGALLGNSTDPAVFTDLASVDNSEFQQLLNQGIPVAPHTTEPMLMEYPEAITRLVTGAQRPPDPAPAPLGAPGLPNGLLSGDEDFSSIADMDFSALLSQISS

Q: With `COC(=O)CCC[C@@H]1[C@H]2CCCN3CCC[C@H](CN1C(=O)C(C)c1ccc(-c4ccccc4)c(F)c1)[C@@H]23` (stereo partly specified) as the compound, how does the fold change (FC) (RAW264.7 [1]) read?
A: The fold change (FC) was 0.59.

Q: What about the inhibition (LX-2 [2]) of the same compound?
A: The inhibition was “Dose-dependent-effect”.

Q: And the inhibition (RAW264.7 [3])?
A: The inhibition was “Active”.

Q: What about the inhibition (RAW264.7 [4]) of the same compound?
A: Its inhibition is “Active”.

Q: And the inhibition (RAW264.7 [5])?
A: The inhibition was “Active”.

Q: What about the inhibition (RAW264.7 [6]) of the same compound?
A: Its inhibition is “Active”.

Q: What about the Activity (Mus musculus [7]) of the same compound?
A: Its Activity is “Active; Significant Alleviation Observed”.

Q: What about the Activity (Mus musculus [8]) of the same compound?
A: The Activity was “Active”.

Q: And the Activity (Mus musculus [9])?
A: Its Activity is “Active; Dramatically Decreased The Collagen Deposition”.

Q: And the Activity (Mus musculus [10])?
A: The Activity was “Active”.

Q: And the Activity (Mus musculus [11])?
A: Its Activity is “Active”.

Q: And the Activity (Mus musculus [12])?
A: Its Activity is “Active”.

Q: And the Activity (Mus musculus [13])?
A: The Activity was “Active”.

Q: What about the Activity (Mus musculus [14]) of the same compound?
A: The Activity was “Active”.

Q: And the Activity (Mus musculus [15])?
A: Its Activity is “Active”.

Q: And the Activity (Mus musculus [16])?
A: The Activity was “Active”.

Q: What about the Activity (Mus musculus [17]) of the same compound?
A: Its Activity is “Active”.

Q: What about the inhibition [18] of the same compound?
A: The inhibition was “Dose-dependent-effect”.

Q: What about the inhibition (LX-2 [19]) of the same compound?
A: The inhibition was “Dose-dependent-effect”.

Q: What about the inhibition (LX-2 [20]) of the same compound?
A: Its inhibition is “inactive”.

Q: And the inhibition (Mus musculus [21])?
A: The inhibition was “Active”.

Q: What about the inhibition (Mus musculus [22]) of the same compound?
A: Its inhibition is “inactive”.

Q: What about the inhibition (Mus musculus [23]) of the same compound?
A: The inhibition was “inactive”.

Q: And the inhibition (Mus musculus [24])?
A: The inhibition was “Active”.

Q: What about the inhibition (Mus musculus [25]) of the same compound?
A: The inhibition was “Active”.

Q: What about the inhibition (Mus musculus [26]) of the same compound?
A: The inhibition was “inactive”.
